The series has as its system CCRIS mutagenicity, Ames/micronucleus/aberration tests. Kind of series: CCRIS mutagenicity studies.
Where [1] appears, read: Test System: AMES SALMONELLA TYPHIMURIUM, Strain/Indicator: TA98, Metabolic Activation: NONE, Method: STANDARD PLATE.
[2] abbreviates: Test System: AMES SALMONELLA TYPHIMURIUM, Strain/Indicator: TA98, Metabolic Activation: RAT, LIVER, S-9, AROCLOR 1254, Method: STANDARD PLATE.
[3] abbreviates: Test System: AMES SALMONELLA TYPHIMURIUM, Strain/Indicator: TA100, Metabolic Activation: NONE, Method: STANDARD PLATE.
Setting [4] is: Test System: AMES SALMONELLA TYPHIMURIUM, Strain/Indicator: TA100, Metabolic Activation: RAT, LIVER, S-9, AROCLOR 1254, Method: STANDARD PLATE.
[5] abbreviates: Test System: AMES SALMONELLA TYPHIMURIUM, Strain/Indicator: TA1535, Metabolic Activation: NONE, Method: STANDARD PLATE.
Where [6] appears, read: Test System: AMES SALMONELLA TYPHIMURIUM, Strain/Indicator: TA1535, Metabolic Activation: RAT, LIVER, S-9, AROCLOR 1254, Method: STANDARD PLATE.
Setting [7] is: Test System: AMES SALMONELLA TYPHIMURIUM, Strain/Indicator: TA1537, Metabolic Activation: NONE, Method: STANDARD PLATE.
[8] abbreviates: Test System: AMES SALMONELLA TYPHIMURIUM, Strain/Indicator: TA1537, Metabolic Activation: RAT, LIVER, S-9, AROCLOR 1254, Method: STANDARD PLATE.
The mark [9] stands for this setting: Test System: AMES SALMONELLA TYPHIMURIUM, Strain/Indicator: TA1538, Metabolic Activation: NONE, Method: STANDARD PLATE.
Where [10] appears, read: Test System: AMES SALMONELLA TYPHIMURIUM, Strain/Indicator: TA1538, Metabolic Activation: RAT, LIVER, S-9, AROCLOR 1254, Method: STANDARD PLATE.

Active and inactive are the calls of the source. How the calls were made is not given here.

In the case of `COCC1O[C@@H](O[C@@H]2C(COC)OC(OC)C(OC)C2OC)C(OC)C(OC)C1OC` (stereo partly specified), the mutagenic call reads like this: under setting [1], “inactive; negative”; under setting [2], “inactive; negative”; under setting [3], “inactive; negative”; under setting [4], “inactive; negative”; under setting [5], “inactive; negative”; under setting [6], “inactive; negative”. In addition, the mutagenic call is “inactive; negative” under setting [7]; “inactive; negative” under setting [8]; “inactive; negative” under setting [9]; “inactive; negative” under setting [10]; “inactive; negative” (Test System: E. COLI, Strain/Indicator: WP2, Metabolic Activation: NONE, Method: STANDARD PLATE); “inactive; negative” (Test System: E. COLI, Strain/Indicator: WP2, Metabolic Activation: RAT, LIVER, S-9, AROCLOR 1254, Method: STANDARD PLATE).

Turning to `Nc1cc2c3c(cccc3c1)-c1ccccc1-2`, the mutagenic call is, setting by setting: (Test System: AMES SALMONELLA TYPHIMURIUM, Strain/Indicator: TA98, Metabolic Activation: RAT, LIVER, S-9, AROCLOR 1254 (2 OR 4%), Method: STANDARD PLATE) “active; positive”; (Test System: AMES SALMONELLA TYPHIMURIUM, Strain/Indicator: TA100, Metabolic Activation: RAT, LIVER, S-9, AROCLOR 1254 (4%), Method: STANDARD PLATE) “active; positive”; (Test System: AMES SALMONELLA TYPHIMURIUM, Strain/Indicator: TA1535, Metabolic Activation: RAT, LIVER, S-9, AROCLOR 1254 (4%), Method: STANDARD PLATE) “active; positive”; (Test System: AMES SALMONELLA TYPHIMURIUM, Strain/Indicator: TA1537, Metabolic Activation: RAT, LIVER, S-9, AROCLOR 1254 (4%), Method: STANDARD PLATE) “active; positive”.

Turning to `NCCNCCO`, the mutagenic call reads like this: (Test System: AMES SALMONELLA TYPHIMURIUM, Strain/Indicator: TA98, Metabolic Activation: HAMSTER, LIVER, S-9, AROCLOR 1254 (10%), Method: PREINCUBATION) “inactive; negative”; (Test System: AMES SALMONELLA TYPHIMURIUM, Strain/Indicator: TA98, Metabolic Activation: NONE, Method: PREINCUBATION) “inactive; negative”; under setting [1], “inactive; negative”; (Test System: AMES SALMONELLA TYPHIMURIUM, Strain/Indicator: TA98, Metabolic Activation: RAT, LIVER, S-9, AROCLOR 1254 (10%), Method: PREINCUBATION) “inactive; negative”; under setting [2], “inactive; negative”; (Test System: AMES SALMONELLA TYPHIMURIUM, Strain/Indicator: TA98, Metabolic Activation: RAT, LIVER, S-9, PCB, Method: PREINCUBATION) “inactive; negative”. Besides, the mutagenic call (Test System: AMES SALMONELLA TYPHIMURIUM, Strain/Indicator: TA100, Metabolic Activation: HAMSTER, LIVER, S-9, AROCLOR 1254 (10%), Method: PREINCUBATION) is “inactive; negative”; the mutagenic call (Test System: AMES SALMONELLA TYPHIMURIUM, Strain/Indicator: TA100, Metabolic Activation: NONE, Method: PREINCUBATION) is “inactive; negative”; the mutagenic call under setting [3] is “inactive; negative”; the mutagenic call (Test System: AMES SALMONELLA TYPHIMURIUM, Strain/Indicator: TA100, Metabolic Activation: RAT, LIVER, S-9, AROCLOR 1254 (10%), Method: PREINCUBATION) was “inactive; negative”; the mutagenic call under setting [4] is “inactive; negative”; the mutagenic call (Test System: AMES SALMONELLA TYPHIMURIUM, Strain/Indicator: TA100, Metabolic Activation: RAT, LIVER, S-9, PCB, Method: PREINCUBATION) is “inactive; negative”. For the same molecule, the mutagenic call by setting is: (Test System: AMES SALMONELLA TYPHIMURIUM, Strain/Indicator: TA1535, Metabolic Activation: HAMSTER, LIVER, S-9, AROCLOR 1254 (10 OR 12%), Method: PREINCUBATION) “active; positive”; (Test System: AMES SALMONELLA TYPHIMURIUM, Strain/Indicator: TA1535, Metabolic Activation: NONE, Method: PREINCUBATION) “inactive; negative”; under setting [5], “inactive; negative”; (Test System: AMES SALMONELLA TYPHIMURIUM, Strain/Indicator: TA1535, Metabolic Activation: RAT, LIVER, S-9, AROCLOR 1254 (10%), Method: PREINCUBATION) “active; positive”; under setting [6], “inactive; negative”; (Test System: AMES SALMONELLA TYPHIMURIUM, Strain/Indicator: TA1537, Metabolic Activation: HAMSTER, LIVER, S-9, AROCLOR 1254 (10%), Method: PREINCUBATION) “inactive; negative”. Moreover, the mutagenic call (Test System: AMES SALMONELLA TYPHIMURIUM, Strain/Indicator: TA1537, Metabolic Activation: NONE, Method: PREINCUBATION) is “inactive; negative”; the mutagenic call under setting [7] is “inactive; negative”; the mutagenic call (Test System: AMES SALMONELLA TYPHIMURIUM, Strain/Indicator: TA1537, Metabolic Activation: RAT, LIVER, S-9, AROCLOR 1254 (10%), Method: PREINCUBATION) is “inactive; negative”; the mutagenic call under setting [8] was “inactive; negative”; the mutagenic call under setting [9] was “inactive; negative”; the mutagenic call under setting [10] is “inactive; negative”. Further, the mutagenic call is, setting by setting: (Test System: CHINESE HAMSTER OVARY, Strain/Indicator: CHO (HGPRT)/6-THIOGUANINE, Metabolic Activation: NONE) “inactive; negative”; (Test System: CHINESE HAMSTER OVARY, Strain/Indicator: CHO (HGPRT)/6-THIOGUANINE, Metabolic Activation: RAT, LIVER, S-9, AROCLOR 1254) “inactive; negative”; (Test System: UDS RAT HEPATOCYTES, Strain/Indicator: THY INCORP, Metabolic Activation: NONE, Method: SCINTILLATION SPECTROMETRY) “inactive; negative”.

For the molecule `O[C@H]1C=CC2=C(c3cccc4cccc2c34)[C@@H]1O`, the mutagenic call was “active; positive” (Test System: AMES SALMONELLA TYPHIMURIUM, Strain/Indicator: TM677, Metabolic Activation: NONE, Method: PREINCUBATION) and “active; positive” (Test System: AMES SALMONELLA TYPHIMURIUM, Strain/Indicator: TM677, Metabolic Activation: RAT, LIVER, POSTMITOCHONDRIAL SUPERNATANT, AROCLOR 1254, Method: PREINCUBATION).

With `COC1=CC(=O)O[C@@H](CCc2ccccc2)C1`, the mutagenic call (Test System: Mouse lymphoma cells, Strain/Indicator: L5178Y ( tk+/tk-), Metabolic Activation: Human, Liver, S-9, Method: Suspension/plate) was “inactive; negative”.

Source of the values: PubChem BioAssay AID1259407 (Chemical Carcinogenesis Research Information System (CCRIS), 2018).
